# Like-named read-outs stand apart in the source and are kept apart here.
# What was measured:
# HeLa cells = test: Proliferation assay HeLa (Method 3); type: cell-based, human; conditions: 4 days, crystal violet, read-out: Inhibition of HeLa cell proliferation IC50
# Protocol: (§1) Cultivated tumour cells (HeLa, human cervical tumour cells, ATCC CCL-2; NCI-H460, human non-small cell lung carcinoma cells, ATCC HTB-177; A2780, human ovarian carcinoma cells, ECACC #93112519; DU 145, hormone-independent human prostate carcinoma cells, ATCC HTB-81; HeLa-MaTu-ADR, multidrug-resistant human cervical carcinoma cells, EPO-GmbH Berlin; Caco-2, human colorectal carcinoma cells, ATCC HTB-37; B16F10, mouse melanoma cells, ATCC CRL-6475) were plated at a density of 5,000 cells/well (DU145, HeLa-MaTu-ADR), 3,000 cells/well (NCI-H460, HeLa), 2,500 cells/well (A2780), 1,500 cells/well (Caco-2), or 1,000 cells/well (B16F10) in a 96-well multititer plate in 200 μL of their respective growth medium supplemented 10% fetal calf serum. After 24 hours, the cells of one plate (zero-point plate) were stained with crystal violet (see below), while the medium of the other plates was replaced by fresh culture medium (200 μl), to which the test substances were added in various concentrations (0 μM, as well as in the range of 0.001-10 μM; the final concentration of the solvent dimethyl sulfoxide was 0.5%). The cells were incubated for 4 days in the presence of test substances. Cell proliferation was determined by staining the cells with crystal violet: the cells were fixed by adding 20 μl/measuring point of an 11% glutaric aldehyde solution for 15 minutes at room temperature. After three washing cycles of the fixed cells with water, the plates were dried at room temperature. The cells were stained by adding 100 μl/measuring point of a 0.1% crystal violet solution (pH 3.0). After three washing cycles of the stained cells with water, the plates were dried at room temperature. The dye was dissolved by adding 100 μl/measuring point of a 10% acetic acid solution. The extinction was determined by photometry at a wavelength of 595 nm. The change of cell number, in percent, was calculated by normalization of the measured values to the extinction values of the zero-point plate (=0%) and the extinction of the untreated (0 μm) cells (=100%). The IC50 values (inhibitory concentration at 50% of maximal effect) were determined by means of a 4 parameter fit.
# NCI-H460 cells = test: Proliferation assay NCI-H460 (Method 3); type: cell-based, human; conditions: NCI-H460, 4 days, crystal violet, read-out: Inhibition of NCI-H460 cell proliferation IC50
# Protocol: as §1
# Caco-2 cells = test: Proliferation assay Caco-2 (Method 3); type: cell-based, human; conditions: Caco-2, 4 days, crystal violet, read-out: Inhibition of Caco-2 cell proliferation IC50
# Protocol: as §1
# CDK2/CycE = target: T1, CDK2/CycE (Homo sapiens, UniProt P24941); test: CDK2/CycE high ATP kinase assay (Method 2b, TR-FRET); type: biochemical; conditions: 2 mM ATP
# T1 construct: GST; purchased ProQinase GmbH (Freiburg, Germany); host or cells: insect cells (Sf9)
# Protocol: 2b. CDK2/CycE High ATP Kinase Assay:
# CDK2/CycE-Inhibitory Activity of Compounds of the Present Invention at 2 mM Adenosine-Tri-Phosphate (ATP) was Quantified Employing the CDK2/CycE TR-FRET (TR-FRET=Time Resolved Fluorescence Energy Transfer) Assay as Described in the Following Paragraphs.
# Recombinant fusion proteins of GST and human CDK2 and of GST and human CycE, expressed in insect cells (Sf9) and purified by Glutathion-Sepharose affinity chromatography, were purchase from ProQinase GmbH (Freiburg, Germany). As substrate for the kinase reaction biotinylated peptide biotin-Ttds-YISPLKSPYKISEG (C-terminus in amid form) was used which can be purchased e.g. form the company JERINI peptide technologies (Berlin, Germany).
# For the assay 50 nl of a 100 fold concentrated solution of the test compound in DMSO was pipetted into a black low volume 384 well microtiter plate (Greiner Bio-One, Frickenhausen, Germany), 2 yl of a solution of CDK2/CycE in aqueous assay buffer [50 mM Tris/HCl pH 8.0, 10 mM MgCl2, 1.0 mM dithiothreitol, 0.1 mM sodium ortho-vanadate, 0.01% (v/v) Nonidet-P40 (Sigma)] were added and the mixture was incubated for 15 min at 22° C. to allow pre-binding of the test compounds to the enzyme before the start of the kinase reaction. […] The concentration of CDK2/CycE was adjusted depending of the activity of the enzyme lot and was chosen appropriate to have the assay in the linear range, typical concentrations were in the range of 15 ng/ml. The reaction was stopped by the addition of 5 yl of a solution of TR-FRET detection reagents (0.2 μM streptavidine-XL665 [Cisbio Bioassays, Codolet, France] and 1 nM anti-RB(pSer807/pSer811)-antibody from BD Pharmingen [#558389] and 1.2 nM LANCE EU-W1024 labeled anti-mouse IgG antibody [Perkin-Elmer, product no. AD0077, as an alternative a Terbium-cryptate-labeled anti-mouse IgG antibody from Cisbio Bioassays can be used]) in an aqueous EDTA-solution (100 mM EDTA, 0.2% (w/v) bovine serum albumin in 100 mM HEPES/NaOH pH 7.0).
# The resulting mixture was incubated 1 h at 22° C. to allow the formation of complex between the phosphorylated biotinylated peptide and the detection reagents. Subsequently the amount of phosphorylated substrate was evaluated by measurement of the resonance energy transfer from the Eu-chelate to the streptavidine-XL. Therefore, the fluorescence emissions at 620 nm and 665 nm after excitation at 350 nm were measured in a TR-FRET reader, e.g. a Rubystar (BMG Labtechnologies, Offenburg, Germany) or a Viewlux (Perkin-Elmer). The ratio of the emissions at 665 nm and at […] was taken as the measure for the amount of phosphorylated substrate. The data were normalised (enzyme reaction without inhibitor=0% inhibition, all other assay components but no enzyme=100% inhibition).
# B16F10 cells = test: Proliferation assay B16F10 (Method 3); type: cell-based, mouse; conditions: 4 days, crystal violet, read-out: Inhibition of Bc6F10 cell proliferation IC50
# Protocol: as §1
SMILES,"IC50 (HeLa cells; Homo sapiens, 96 h) [nM]","IC50 (NCI-H460 cells; Homo sapiens, NCI-H460, 96 h) [nM]","IC50 (Caco-2 cells; Homo sapiens, Caco-2, 96 h) [nM]",IC50 (CDK2/CycE) [nM],"IC50 (B16F10 cells; Mus musculus, B16-F10, 96 h) [nM]",IC50 (HeLa cells) [nM],IC50 (NCI-H460 cells) [nM],IC50 (Caco-2 cells) [nM],IC50 (B16F10 cells) [nM]
"CS(=O)(Cc1cccc(Nc2ncc(F)c(-c3ccc(F)c4ccoc34)n2)c1)=NC#N (racemic) [Example 1, (rac)-[(3-{[5-Fluoro-4-(4-fluoro-1-benzofuran-7-yl)pyrimidin-2-yl]amino}benzyl)(methyl)oxido-λ^6-sulfanylidene]cyanamide]",104,189,110,560,170,–,–,–,–
"CS(=N)(=O)Cc1cccc(Nc2ncc(F)c(-c3ccc(F)c4ccoc34)n2)c1 (racemic) [Example 4, (rac)-5-Fluoro-4-(4-fluoro-1-benzofuran-7-yl)-N-{3-[(S-methylsulfonimidoyl)-methyl]phenyl}-pyrimidin-2-amine]",297,181,141,510,211,–,–,–,–
"CS(=O)(Cc1cc(F)cc(Nc2ncc(F)c(-c3ccc(F)c4ccoc34)n2)c1)=NC#N (racemic) [Example 7, (rac)-[(3-Fluoro-5-{[5-fluoro-4-(4-fluoro-1-benzofuran-7-yl)pyrimidin-2-yl]amino}benzyl)(methyl)-oxido-λ^6-sulfanylidene]cyanamide]",50,104,75,652,64,–,–,–,–
"CS(=N)(=O)Cc1cc(F)cc(Nc2ncc(F)c(-c3ccc(F)c4ccoc34)n2)c1 (racemic) [Example 10, (rac)-5-Fluoro-4-(4-fluoro-1-benzofuran-7-yl)-N-{3-fluoro-5-[(S-methylsulfonimidoyl)-methyl]-phenyl}-pyrimidin-2-amine]",97,112,104,1800,58,–,–,–,–
"Cc1cc(CS(C)(=O)=NC#N)cc(Nc2ncc(F)c(-c3ccc(F)c4ccoc34)n2)c1 (racemic) [Example 13, (rac)-[(3-{[5-Fluoro-4-(4-fluoro-1-benzofuran-7-yl)pyrimidin-2-yl]amino}-5-methylbenzyl)-(methyl)oxido-λ^6-sulfanylidene]cyanamide]",40,118,40,1200,49,–,–,–,–
"Cc1cc(CS(C)(=N)=O)cc(Nc2ncc(F)c(-c3ccc(F)c4ccoc34)n2)c1 (racemic) [Example 16, (rac)-5-Fluoro-4-(4-fluoro-1-benzofuran-7-yl)-N-{3-methyl-5-[(S-methylsulfonimidoyl)-methyl]phenyl}pyrimidin-2-amine]",46,120,60,491,82,–,–,–,–
"CS(=O)(Cc1cc(Nc2ncc(F)c(-c3ccc(F)c4ccoc34)n2)cc(S(F)(F)(F)(F)F)c1)=NC#N (racemic) [Example 17, (rac)-{[3-{[5-fluoro-4-(4-fluoro-1-benzofuran-7-yl)pyrimidin-2-yl]amino}-5-(pentafluoro-λ^6-sulfanyl)benzyl](methyl)oxido-λ^6-sulfanylidene}cyanamide]",99,192,111,1460,118,–,–,–,–
"CS(=N)(=O)Cc1cc(Nc2ncc(F)c(-c3ccc(F)c4ccoc34)n2)cc(S(F)(F)(F)(F)F)c1 (racemic) [Example 18, (rac)-5-Fluoro-4-(4-fluoro-1-benzofuran-7-yl)-N-{3-[(S-methylsulfonimidoyl)methyl]-5-(pentafluoro-λ^6-sulfanyl)phenyl}pyrimidin-2-amine]",101,136,152,1540,168,–,–,–,–
"CS(=O)(Cc1cccc(Nc2ncc(F)c(-c3ccc(F)c4ccoc34)n2)c1)=NC#N (single isomer, unassigned) [Example 2, [(3-{[5-Fluoro-4-(4-fluoro-1-benzofuran-7-yl)pyrimidin-2-yl]amino}benzyl)(methyl)oxido-λ^6-sulfanylidene]cyanamide]",–,–,–,353,–,100,117,87,75
"CS(=O)(Cc1cccc(Nc2ncc(F)c(-c3ccc(F)c4ccoc34)n2)c1)=NC#N (single isomer, unassigned) [Example 3, [(3-{[5-Fluoro-4-(4-fluoro-1-benzofuran-7-yl)pyrimidin-2-yl]amino}benzyl)(methyl)oxido-λ^6-sulfanylidene]cyanamide]",109,188,144,475,136,–,–,–,–
"CS(=N)(=O)Cc1cccc(Nc2ncc(F)c(-c3ccc(F)c4ccoc34)n2)c1 (single isomer, unassigned) [Example 5, 5-Fluoro-4-(4-fluoro-1-benzofuran-7-yl)-N-{3-[(S-methylsulfonimidoyl)-methyl]-phenyl}-pyrimidin-2-amine]",177,343,–,802,260,–,–,230,–
"CS(=N)(=O)Cc1cccc(Nc2ncc(F)c(-c3ccc(F)c4ccoc34)n2)c1 (single isomer, unassigned) [Example 6, 5-Fluoro-4-(4-fluoro-1-benzofuran-7-yl)-N-{3-[(S-methylsulfonimidoyl)-methyl]-phenyl}-pyrimidin-2-amine]",–,–,–,1000,–,115,314,112,185
"CS(=O)(Cc1cc(F)cc(Nc2ncc(F)c(-c3ccc(F)c4ccoc34)n2)c1)=NC#N (single isomer, unassigned) [Example 8, [(3-Fluoro-5-{[5-fluoro-4-(4-fluoro-1-benzofuran-7-yl)pyrimidin-2-yl]amino}benzyl)(methyl)-oxido-λ^6-sulfanylidene]cyanamide]",–,119,43,812,56,89,–,–,–

# — patent US9884849B2, “Fluorinated benzofuranyl-pyrimidine derivatives containing a sulfoximine group” (Bayer Pharma Aktiengesellschaft, priority 2014, dated 2018)
